Experiments:
FTD/ALS model mice [1] = assay: Morris water maze test (Test Example 2); assay type: in vivo; settings: 7- to 8-month-old mice; nasal, single agent 0.04 mg/day, 1 month
From the text: FVB/NJ-Tg(C9orf72)500Lpwr/J mice (FTD/ALS model mice) were purchased from The Jackson Laboratory (Bar Harbor, ME, USA). The mouse strain was generated as a model for the C9orf72-associated FTD/ALS expressing the human C9orf72 gene with about 500 hexanucleotide ([…]) repeats using a bacterial artificial chromosome (BAC) vector. Transgenic (Tg) mice were crossed with wild-type FVB/NJc1 mice, and the transgene was maintained as a heterozygote at our animal facility. […] Louis, MO) and trans-resveratrol (Sigma-Aldrich) were dissolved in 0.5% low-viscosity CMC (Sigma-Aldrich) at 4 mg/mL. […] Age-matched non-Tg […] mates received only CMC. After administration for one month, the cognitive function of the mice was assessed in the Morris water maze test as described above.

FTD/ALS model mice [2] = assay: Immunohistochemical analysis of brain sections (Test Example 2); assay type: in vivo; settings: nasal, single agent 0.04 mg/day, 1 month
From the text: FVB/NJ-Tg(C9orf72)500Lpwr/J mice (FTD/ALS model mice) were purchased from The Jackson Laboratory (Bar Harbor, ME, USA). The mouse strain was generated as a model for the C9orf72-associated FTD/ALS expressing the human C9orf72 gene with about 500 hexanucleotide (GGGGCC) repeats using a bacterial artificial chromosome (BAC) vector. Transgenic (Tg) mice were crossed with wild-type FVB/NJc1 mice, and the transgene was maintained as a heterozygote at our animal facility.
(§1) Age-matched non-Tg rat mates received only CMC.
(§2) After the behavioral test, each group was divided into two groups: one for immunohistochemical analysis and the other for future biochemical analysis. Immunohistochemical staining was performed as described above. For staining of double-stranded RNA-dependent protein kinase (PKR), phosphorylated TDP-43, synaptophysin, sections were boiled in 10 mM citrate buffer solution (pH6) for 30 min to expose the antigens. The sections were blocked overnight with 10% calf serum, and then the resultant sections were stained with antibodies for DNA/RNA G-quadruplex (BG4; Absolute antibody, Cleveland, UK), phospho-PKR (Thr446) (MilliporeSigma, Burlington, MA, USA), poly-GA, poly-GP (Cosmo Bio Co., Ltd., Tokyo, Japan), pSer409/410-TDP-43 (Cosmo Bio Co., Ltd.), and synaptophysin (SVP-38; Sigma-Aldrich, St. Luis, MO, USA). Only synaptophysin was stained with a biotin-labeled secondary antibody (Vector Laboratories, Burlingame, CA, USA), a horseradish peroxidase (HRP) -labeled avidin-biotin complex (Vector Laboratories), HRP substrate, diaminobenzidine (DAB), or an FITC-labeled secondary antibody (The Jackson Laboratory). […] Neuropathologies were evaluated by measuring the staining intensity or area or by counting positive puncta or cells in a constant area in each photograph using NIH ImageJ software.

PKR = assay: Immunohistochemical analysis of phospho-PKR (Thr446) (Test Example 2); assay type: in vivo, mice; settings: prefrontal cortex; nasal, single agent 0.04 mg/day, 1 month
Method: as §1, §2

BDNF = assay: Expression of BDNF in the mouse brains; assay type: in vivo; settings: stated in the discussion only; no method, dose or data given

Oc1ccc(/C=C/c2cc(O)cc(O)c2)cc1 [resveratrol, 3,5,4'-trihydroxy-trans-stilbene]
cognitive function of FTD/ALS model mice (FTD/ALS model mice [1]): significantly improved
relative strength of the reduction of prefrontal cortex pathologies (G-quadruplex, phosphorylated PKR, poly-GA, poly-GP, phosphorylated TDP-43) (FTD/ALS model mice [2]; comparison among treatment groups): strongest effect
synaptic loss (synaptophysin levels) in the DG (FTD/ALS model mice [2]; dentate gyrus): significantly restored synaptic loss
synaptic loss (synaptophysin levels) in the CA2-3 region (FTD/ALS model mice [2]; hippocampus): significantly restored synaptic loss
levels of G-quadruplex (FTD/ALS model mice [2]; prefrontal cortex): significantly reduced
levels of phosphorylated TDP-43 (FTD/ALS model mice [2]; prefrontal cortex): significantly reduced
levels of poly-GA (FTD/ALS model mice [2]; prefrontal cortex): significantly reduced
levels of poly-GP (FTD/ALS model mice [2]; prefrontal cortex): significantly reduced
levels of phosphorylated PKR (PKR): significantly reduced
expression of BDNF in the mouse brains (BDNF): elicited

From patent EP4706655A1, “PREVENTIVE OR THERAPEUTIC AGENT FOR NEURODEGENERATIVE DISEASE” (Medilabo RFP, Inc., priority 2023, dated 2024)
